Data published in publication PMC5218480 (PLoS ONE, 2017).

Test system: MV-4-11 cells
Experiment: Gene expression microarray analysis (Affymetrix PrimeView) and GSEA
Format: cell-based, human
Parameters: RFU PODN (11730768_x_at) / Fold change /veh PODN (11730768_x_at) / RFU LINC00158 (11744669_a_at) / Fold change /veh LINC00158 (11744669_a_at) / RFU DUSP10 (11751237_a_at) / Fold change /veh DUSP10 (11751237_a_at) / RFU ID3 (11757404_x_at) / Fold change /veh ID3 (11757404_x_at) / RFU PLEKHG5 (11737974_s_at) / Fold change /veh PLEKHG5 (11737974_s_at) / RFU LRRC4B (11730491_at) / Fold change /veh LRRC4B (11730491_at) / RFU GIMAP4 (11747438_a_at) / Fold change /veh GIMAP4 (11747438_a_at) / RFU KRT8 (11758183_x_at) / Fold change /veh KRT8 (11758183_x_at) / RFU CNN1 (11734310_a_at) / Fold change /veh CNN1 (11734310_a_at) / RFU VPS37D (11726825_at) / Fold change /veh VPS37D (11726825_at) / RFU C10orf10 (11716522_x_at) / Fold change /veh C10orf10 (11716522_x_at) / RFU KIR2DL2 /// KIR2DL4 /// KIR2DL5A /// KIR2DL5B /// KIR2DS1 /// KIR2DS2 /// KIR2DS3 /// KIR2DS4 /// KIR3DL3 /// KIR3DL3 /// KIR3DS1 (11738374_at) / Fold change /veh KIR2DL2 /// KIR2DL4 /// KIR2DL5A /// KIR2DL5B /// KIR2DS1 /// KIR2DS2 /// KIR2DS3 /// KIR2DS4 /// KIR3DL3 /// KIR3DL3 /// KIR3DS1 (11738374_at) / RFU C1QL1 (11718748_at) / Fold change /veh C1QL1 (11718748_at) / RFU TMPRSS4 (11747572_a_at) / Fold change /veh TMPRSS4 (11747572_a_at) / RFU HAMP (11756126_x_at) / Fold change /veh HAMP (11756126_x_at) / RFU RNFT2 (11725882_a_at) / Fold change /veh RNFT2 (11725882_a_at) / RFU NR4A2 (11747474_a_at) / Fold change /veh NR4A2 (11747474_a_at) / RFU ABCC12 (11746883_a_at) / Fold change /veh ABCC12 (11746883_a_at) / RFU TMEM136 (11760407_x_at) / Fold change /veh TMEM136 (11760407_x_at) / RFU CLDN22 /// WWC2 (11732394_at) / Fold change /veh CLDN22 /// WWC2 (11732394_at) / RFU HLA-DPB1 (11760878_x_at) / Fold change /veh HLA-DPB1 (11760878_x_at) / RFU SPINT1 (11716480_a_at) / Fold change /veh SPINT1 (11716480_a_at) / RFU GAP43 (11754022_s_at) / Fold change /veh GAP43 (11754022_s_at) / RFU A4GNT (11735810_at) / Fold change /veh A4GNT (11735810_at) / RFU PRB3 (11715151_x_at) / Fold change /veh PRB3 (11715151_x_at) / RFU TUBB4B (11761932_at) / Fold change /veh TUBB4B (11761932_at) / RFU CAPN14 (11732068_a_at) / Fold change /veh CAPN14 (11732068_a_at) / RFU TMCC2 (11721928_a_at) / Fold change /veh TMCC2 (11721928_a_at) / RFU IRGQ (11745062_a_at) / Fold change /veh IRGQ (11745062_a_at) / RFU FAM174B (11720279_a_at) / Fold change /veh FAM174B (11720279_a_at) / RFU TMPRSS4 (11748680_a_at) / Fold change /veh TMPRSS4 (11748680_a_at) / RFU FAM212B (11763350_a_at) / Fold change /veh FAM212B (11763350_a_at) / RFU PLEKHG5 (11743358_a_at) / Fold change /veh PLEKHG5 (11743358_a_at) / RFU ZSCAN30 (11745921_a_at) / Fold change /veh ZSCAN30 (11745921_a_at) / RFU CMKLR1 (11741424_a_at) / Fold change /veh CMKLR1 (11741424_a_at) / RFU LOC101060620 /// MAPK8IP1 (11723275_at) / Fold change /veh LOC101060620 /// MAPK8IP1 (11723275_at) / RFU SPTSSB (11747773_x_at) / Fold change /veh SPTSSB (11747773_x_at) / RFU PRSS12 (11739890_at) / Fold change /veh PRSS12 (11739890_at) / RFU BIN1 (11741810_x_at) / Fold change /veh BIN1 (11741810_x_at) / RFU WNT11 (11732464_a_at) / Fold change /veh WNT11 (11732464_a_at) / RFU C10orf10 (11716521_a_at) / Fold change /veh C10orf10 (11716521_a_at) / RFU C5orf56 (11738089_at) / Fold change /veh C5orf56 (11738089_at) / RFU CYB561 (11721691_x_at) / Fold change /veh CYB561 (11721691_x_at) / RFU ANKRD19P (11752326_a_at) / Fold change /veh ANKRD19P (11752326_a_at) / RFU OR2T12 /// OR2T33 /// OR2T8 (11738714_s_at) / Fold change /veh OR2T12 /// OR2T33 /// OR2T8 (11738714_s_at) / RFU VCAN (11748164_a_at) / Fold change /veh VCAN (11748164_a_at) / RFU JSRP1 (11732532_at) / Fold change /veh JSRP1 (11732532_at) / RFU KRTAP10-11 (11738290_x_at) / Fold change /veh KRTAP10-11 (11738290_x_at) / RFU MYO3A (11730013_a_at) / Fold change /veh MYO3A (11730013_a_at) / RFU EBF3 (11725865_a_at) / Fold change /veh EBF3 (11725865_a_at) / RFU CAMK2N1 (11719241_x_at) / Fold change /veh CAMK2N1 (11719241_x_at) / RFU C5orf56 (11738088_a_at) / Fold change /veh C5orf56 (11738088_a_at) / RFU OLFML3 (11715873_a_at) / Fold change /veh OLFML3 (11715873_a_at) / RFU LOC100653217 /// NTM (11731650_a_at) / Fold change /veh LOC100653217 /// NTM (11731650_a_at) / RFU MAPK11 (11762145_a_at) / Fold change /veh MAPK11 (11762145_a_at) / RFU FIZ1 (11724087_x_at) / Fold change /veh FIZ1 (11724087_x_at) / RFU OASL (11726364_x_at) / Fold change /veh OASL (11726364_x_at) / RFU SOX15 (11748057_x_at) / Fold change /veh SOX15 (11748057_x_at) / RFU CD79A (11719716_a_at) / Fold change /veh CD79A (11719716_a_at) / RFU HIST1H1D (11736915_at) / Fold change /veh HIST1H1D (11736915_at) / RFU CASKIN2 (11723855_a_at) / Fold change /veh CASKIN2 (11723855_a_at) / RFU LOC730098 (11760151_x_at) / Fold change /veh LOC730098 (11760151_x_at) / RFU OR4N2 (11742367_at) / Fold change /veh OR4N2 (11742367_at) / RFU PRRT2 (11749266_a_at) / Fold change /veh PRRT2 (11749266_a_at) / RFU SNX32 (11753110_a_at) / Fold change /veh SNX32 (11753110_a_at) / RFU CDHR5 (11726645_a_at) / Fold change /veh CDHR5 (11726645_a_at) / RFU RCAN1 (11760418_a_at) / Fold change /veh RCAN1 (11760418_a_at) / RFU FAM167A (11723789_a_at) / Fold change /veh FAM167A (11723789_a_at) / RFU FAM26E (11764081_at) / Fold change /veh FAM26E (11764081_at) / RFU ISYNA1 (11749810_s_at) / Fold change /veh ISYNA1 (11749810_s_at) / RFU ACY1 (11761880_at) / Fold change /veh ACY1 (11761880_at) / RFU 11764098_at / Fold change /veh 11764098_at / RFU SAMD14 (11745864_x_at) / Fold change /veh SAMD14 (11745864_x_at) / RFU NPB (11741838_a_at) / Fold change /veh NPB (11741838_a_at) / RFU TMPRSS6 (11731388_a_at) / Fold change /veh TMPRSS6 (11731388_a_at) / RFU KRTAP10-2 (11738614_at) / Fold change /veh KRTAP10-2 (11738614_at) / RFU ARHGAP8 /// PRR5-ARHGAP8 (11727945_x_at) / Fold change /veh ARHGAP8 /// PRR5-ARHGAP8 (11727945_x_at) / RFU KRTAP5-7 /// NADSYN1 (11734609_at) / Fold change /veh KRTAP5-7 /// NADSYN1 (11734609_at) / RFU RASL12 (11751679_a_at) / Fold change /veh RASL12 (11751679_a_at) / RFU CDKN2B (11736163_a_at) / Fold change /veh CDKN2B (11736163_a_at) / RFU PRF1 (11729649_at) / Fold change /veh PRF1 (11729649_at) / RFU, ZNF638 /// ZNF638-IT1 / Fold change vs veh, ZNF638 /// ZNF638-IT1 / RFU, PANK3 / Fold change vs veh, PANK3 / RFU, SH3YL1 / Fold change vs veh, SH3YL1 / RFU, ZEB2 / Fold change vs veh, ZEB2 / RFU, NRIP1 / Fold change vs veh, NRIP1 / RFU, PTTG1IP / Fold change vs veh, PTTG1IP / RFU, CAPN2 / Fold change vs veh, CAPN2 / RFU, MED14 / Fold change vs veh, MED14 / RFU, SNORA58 / Fold change vs veh, SNORA58 / RFU, C1orf63 / Fold change vs veh, C1orf63 / RFU, LRRFIP1 / Fold change vs veh, LRRFIP1 / RFU, NDUFAF7 / Fold change vs veh, NDUFAF7 / RFU, SLC12A2 / Fold change vs veh, SLC12A2 / RFU, IBTK / Fold change vs veh, IBTK / RFU, ESF1 / Fold change vs veh, ESF1 / Fold change vs veh, TMEM50B / RFU, TAOK1 / Fold change vs veh, TAOK1 / RFU, ACBD3 / Fold change vs veh, ACBD3 / RFU, TMA16 / Fold change vs veh, TMA16 / RFU, RWDD3 / Fold change vs veh, RWDD3 / RFU, BCAT1 / Fold change vs veh, BCAT1 / RFU, EDEM3 / Fold change vs veh, EDEM3 / RFU, TMEM33 / Fold change vs veh, TMEM33 / RFU, WDR75 / Fold change vs veh, WDR75 / RFU, AHCTF1 / Fold change vs veh, AHCTF1 / RFU, TFRC / Fold change vs veh, TFRC / RFU, ZDHHC17 / Fold change vs veh, ZDHHC17 / RFU, NOM1 / Fold change vs veh, NOM1 / RFU, ARL8B / Fold change vs veh, ARL8B / RFU, ZBTB11 / Fold change vs veh, ZBTB11 / RFU, TAMM41 / Fold change vs veh, TAMM41 / RFU, KIAA1704 /// LOC100996395 / Fold change vs veh, KIAA1704 /// LOC100996395 / RFU, ING1 / Fold change vs veh, ING1 / RFU, TRMT61B / Fold change vs veh, TRMT61B / RFU, FUBP3 / Fold change vs veh, FUBP3 / RFU, TP53 / Fold change vs veh, TP53 / RFU, TNKS2 / Fold change vs veh, TNKS2 / RFU, ZFP14 / Fold change vs veh, ZFP14 / RFU, ACTR2 / Fold change vs veh, ACTR2 / RFU, PPP3R1 / Fold change vs veh, PPP3R1 / RFU, PIK3R1 / Fold change vs veh, PIK3R1 / RFU, HNRNPA1 / Fold change vs veh, HNRNPA1 / RFU, RNF170 / Fold change vs veh, RNF170 / RFU, ZNF28 / Fold change vs veh, ZNF28 / RFU, RNGTT / Fold change vs veh, RNGTT / RFU, OGT / Fold change vs veh, OGT / RFU, BRD1 / Fold change vs veh, BRD1 / RFU, MARS / Fold change vs veh, MARS / RFU, ZNF655 / Fold change vs veh, ZNF655 / RFU, FAHD1 / Fold change vs veh, FAHD1 / RFU, BDP1 / Fold change vs veh, BDP1 / RFU, LRRCC1 / Fold change vs veh, LRRCC1 / RFU, ARID1A / Fold change vs veh, ARID1A / RFU, ZNF146 / Fold change vs veh, ZNF146 / RFU, ZNF330 / Fold change vs veh, ZNF330 / RFU, GPN3 / Fold change vs veh, GPN3 / RFU, C9orf123 / Fold change vs veh, C9orf123 / RFU, N4BP2L2 / Fold change vs veh, N4BP2L2 / RFU, ARFIP1 / Fold change vs veh, ARFIP1 / RFU, FAM179B / Fold change vs veh, FAM179B / RFU, BCL10 / Fold change vs veh, BCL10 / RFU, UHRF1BP1L / Fold change vs veh, UHRF1BP1L / RFU, BET1 / Fold change vs veh, BET1 / RFU, CNOT2 / Fold change vs veh, CNOT2 / RFU, ZNF268 / Fold change vs veh, ZNF268 / Fold change vs veh, ZNF507 / RFU, DGCR2 / Fold change vs veh, DGCR2 / RFU, WDSUB1 / Fold change vs veh, WDSUB1 / Fold change vs veh, HSP90B1 /// MIR3652 / RFU, ADSS / Fold change vs veh, ADSS / RFU, GK / Fold change vs veh, GK / RFU, ZNF148 / Fold change vs veh, ZNF148 / RFU, TAF9 / Fold change vs veh, TAF9 / RFU, SLC1A5 / Fold change vs veh, SLC1A5 / RFU, SLMO2 / Fold change vs veh, SLMO2 / RFU, ABCC4 / Fold change vs veh, ABCC4 / RFU, LOC101060439 /// RAP1B / Fold change vs veh, LOC101060439 /// RAP1B / RFU, RFX7 / Fold change vs veh, RFX7 / RFU, GTPBP10 / Fold change vs veh, GTPBP10 / RFU, CNEP1R1 / Fold change vs veh, CNEP1R1 / RFU, BIVM-ERCC5 /// ERCC5 / Fold change vs veh, BIVM-ERCC5 /// ERCC5 / RFU, ILF3 / Fold change vs veh, ILF3 / RFU 11762660_at / Fold change /veh 11762660_at / RFU VCAN (11757783_s_at) / Fold change /veh VCAN (11757783_s_at) / RFU DDX43 (11728927_at) / Fold change /veh DDX43 (11728927_at) / RFU KRT8 (11758188_x_at) / Fold change /veh KRT8 (11758188_x_at) / RFU NKD1 (11759106_at) / Fold change /veh NKD1 (11759106_at) / RFU SRD5A1 (11742802_a_at) / Fold change /veh SRD5A1 (11742802_a_at) / RFU TPSAB1 /// TPSB2 (11721975_s_at) / Fold change /veh TPSAB1 /// TPSB2 (11721975_s_at) / RFU GSTM3 (11746129_a_at) / Fold change /veh GSTM3 (11746129_a_at) / RFU IL23R (11737362_x_at) / Fold change /veh IL23R (11737362_x_at) / RFU TMEM51 (11727254_a_at) / Fold change /veh TMEM51 (11727254_a_at) / RFU PIWIL2 (11732686_x_at) / Fold change /veh PIWIL2 (11732686_x_at) / RFU ORM1 (11744905_x_at) / Fold change /veh ORM1 (11744905_x_at) / RFU CCDC152 (11743942_at) / Fold change /veh CCDC152 (11743942_at) / RFU ECM1 (11717891_a_at) / Fold change /veh ECM1 (11717891_a_at) / RFU IL23R (11748794_a_at) / Fold change /veh IL23R (11748794_a_at) / RFU TNFAIP8L3 (11732012_x_at) / Fold change /veh TNFAIP8L3 (11732012_x_at) / RFU MBOAT4 (11741988_at) / Fold change /veh MBOAT4 (11741988_at) / RFU 11764193_at / Fold change /veh 11764193_at / RFU TMEM53 (11763286_at) / Fold change /veh TMEM53 (11763286_at) / RFU MAGEB2 (11727129_at) / Fold change /veh MAGEB2 (11727129_at) / RFU TMEM200A (11744735_a_at) / Fold change /veh TMEM200A (11744735_a_at) / RFU CCDC152 (11751479_a_at) / Fold change /veh CCDC152 (11751479_a_at) / RFU FAM211A (11726209_a_at) / Fold change /veh FAM211A (11726209_a_at) / RFU RGS16 (11746705_a_at) / Fold change /veh RGS16 (11746705_a_at) / RFU VCAN (11755009_s_at) / Fold change /veh VCAN (11755009_s_at) / RFU RHOB (11743442_s_at) / Fold change /veh RHOB (11743442_s_at) / RFU RGS16 (11720943_a_at) / Fold change /veh RGS16 (11720943_a_at) / RFU RGS16 (11720944_at) / Fold change /veh RGS16 (11720944_at) / RFU, VPS4B / Fold change vs veh, VPS4B / RFU, CREB1 / Fold change vs veh, CREB1 / RFU, DNAJC13 / Fold change vs veh, DNAJC13 / RFU, GNAQ / Fold change vs veh, GNAQ / RFU, CDK5R1 / Fold change vs veh, CDK5R1 / RFU, ZRANB3 / Fold change vs veh, ZRANB3 / RFU, CUL4A / Fold change vs veh, CUL4A / RFU, CCNY / Fold change vs veh, CCNY / RFU, UFL1 / Fold change vs veh, UFL1 / RFU, COG3 / Fold change vs veh, COG3 / RFU, DIAPH2 / Fold change vs veh, DIAPH2 / RFU, SKA2 / Fold change vs veh, SKA2 / RFU, AFF3 / Fold change vs veh, AFF3 / RFU, LMF1 / Fold change vs veh, LMF1 / RFU, IPO11 / Fold change vs veh, IPO11 / RFU, DFFB / Fold change vs veh, DFFB / RFU, FOXP1 / Fold change vs veh, FOXP1 / RFU, CARD8 / Fold change vs veh, CARD8 / RFU, STRN3 / Fold change vs veh, STRN3 / RFU, ADK / Fold change vs veh, ADK / RFU, RASSF2 / Fold change vs veh, RASSF2 / RFU, WIPF1 / Fold change vs veh, WIPF1 / RFU, LARP1B / Fold change vs veh, LARP1B / RFU, RASA1 / Fold change vs veh, RASA1 / RFU, RB1 / Fold change vs veh, RB1 / RFU, PPFIA1 / Fold change vs veh, PPFIA1 / RFU, MAT2A / Fold change vs veh, MAT2A / RFU, CCT5 / Fold change vs veh, CCT5 / RFU, WDR92 / Fold change vs veh, WDR92 / RFU, CUX1 / Fold change vs veh, CUX1 / RFU, TTC7A / Fold change vs veh, TTC7A / RFU, TMEM135 / Fold change vs veh, TMEM135 / RFU, DEPTOR / Fold change vs veh, DEPTOR / RFU, CPM / Fold change vs veh, CPM / RFU, DNAJB6 / Fold change vs veh, DNAJB6 / RFU, CACNA2D3 / Fold change vs veh, CACNA2D3 / RFU, DTX4 / Fold change vs veh, DTX4 / RFU, TFCP2 / Fold change vs veh, TFCP2 / RFU, GMCL1 /// GMCL1P1 / Fold change vs veh, GMCL1 /// GMCL1P1 / RFU, AEBP2 / Fold change vs veh, AEBP2 / RFU, SNHG1 /// SNORD22 /// SNORD25 /// SNORD26 /// SNORD27 /// SNORD28 /// SNORD29 /// SNORD31 / Fold change vs veh, SNHG1 /// SNORD22 /// SNORD25 /// SNORD26 /// SNORD27 /// SNORD28 /// SNORD29 /// SNORD31 / Fold change (Aza/veh), C12orf56 (ProbeSet 11735607_a_at) / Fold change (ACY-1035/veh), C12orf56 (ProbeSet 11735607_a_at) / Fold change (Aza/veh), FGFR1OP (ProbeSet 11751329_s_at) / Fold change (ACY-1035/veh), FGFR1OP (ProbeSet 11751329_s_at) / Fold change (Aza/veh), VPS36 (ProbeSet 11739960_a_at) / Fold change (ACY-1035/veh), VPS36 (ProbeSet 11739960_a_at) / RFU SYPL1 (11715823_x_at) / Fold change /veh SYPL1 (11715823_x_at) / RFU IGFBP7 (11715501_s_at) / Fold change /veh IGFBP7 (11715501_s_at) / RFU REEP3 (11722064_at) / Fold change /veh REEP3 (11722064_at) / RFU IGLL1 (11728026_x_at) / Fold change /veh IGLL1 (11728026_x_at): dose or concentration left out as unconfirmed
Conditions: MV-4-11 cells, 48 hours

SMILES: Nc1ncn([C@@H]2O[C@H](CO)[C@@H](O)[C@H]2O)c(=O)n1 [azacitidine]
- RFU TMEM53 (11763286_at): 26.80 RFU
